In the supplement of paper PMC4862054:

Tests used:
Conditions in all cases: incubation time: 72 h
MDA-MB-468 [1] = test: normalised response (% of control), CellTox Green; higher = less cell death (100 = DMSO, 0 = benzethonium chloride kill control)
How it was run: (§1)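 Breast cancer cell lines (20 µl suspension) were seeded into 384-well plates holding compound at 5 concentrations in 10-fold steps over a compound-specific 10,000-fold range, then incubated 72 h. CellTox Green fluorescence (485/520 nm) was read first, then CellTiter-Glo luminescence after 10 min at room temperature. Each plate was normalised to 0.1 % DMSO (100) and a positive kill control (0). Each value is the normalised signal at a single concentration of the series.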

MFM-223 [2] = test: as above
How it was run: as §1

HDQ-P1 [3] = test: as above
How it was run: as §1

DU-4475 [4] = test: as above
How it was run: as §1

MDA-MB-453 [5] = test: as above
How it was run: as §1

MDA-MB-436 [6] = test: as above
How it was run: as §1

CAL-85-1 [7] = test: as above
How it was run: as §1

HCC1143 [8] = test: as above
How it was run: as §1

BT-474 [9] = test: as above
How it was run: as §1

MCF-10A [10] = test: as above
How it was run: as §1

CAL-120 [11] = test: as above
How it was run: as §1

Hs578T [12] = test: as above
How it was run: as §1

CAL-148 [13] = test: as above
How it was run: as §1

BT-549 [14] = test: as above
How it was run: as §1

MDA-MB-231 [15] = test: as above
How it was run: as §1

HCC1599 [16] = test: as above
How it was run: as §1

CAL-51 [17] = test: as above
How it was run: as §1

HCC1937 [18] = test: as above
How it was run: as §1

MDA-MB-468 [19] = test: normalised response (% of control), CellTiter-Glo; higher = more viable cells (100 = DMSO, 0 = benzethonium chloride kill control)
Description: (§2)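 DSRT, 72 h incubation, CellTox Green / CellTiter-Glo readout. Signal is normalised to DMSO and benzethonium chloride controls. Value is the normalised response at the highest dose.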

MFM-223 [20] = test: as above
Description: as §2

HDQ-P1 [21] = test: as above
Description: as §2

DU-4475 [22] = test: as above
Description: as §2

MDA-MB-453 [23] = test: as above
Description: as §2

MDA-MB-436 [24] = test: as above
Description: as §2

CAL-85-1 [25] = test: as above
Description: as §2

HCC1143 [26] = test: as above
Description: as §2

BT-474 [27] = test: as above
Description: as §2

MCF-10A [28] = test: as above
Description: as §2

CAL-120 [29] = test: as above
Description: as §2

Hs578T [30] = test: as above
Description: as §2

CAL-148 [31] = test: as above
Description: as §2

SK-BR-3 = test: as above
Description: as §2

BT-549 [32] = test: as above
Description: as §2

MDA-MB-231 [33] = test: as above
Description: as §2

HCC1599 [34] = test: as above
Description: as §2

CAL-51 [35] = test: as above
Description: as §2

HCC1937 [36] = test: as above
Description: as §2

Compound	normalised response (MDA-MB-468 [1]) [%]	normalised response (MFM-223 [2]) [%]	normalised response (HDQ-P1 [3]) [%]	normalised response (DU-4475 [4]) [%]	normalised response (MDA-MB-453 [5]) [%]	normalised response (MDA-MB-436 [6]) [%]	normalised response (CAL-85-1 [7]) [%]	normalised response (HCC1143 [8]) [%]	normalised response (BT-474 [9]) [%]	normalised response (MCF-10A [10]) [%]	normalised response (CAL-120 [11]) [%]	normalised response (Hs578T [12]) [%]	normalised response (CAL-148 [13]) [%]	normalised response (BT-549 [14]) [%]	normalised response (MDA-MB-231 [15]) [%]	normalised response (HCC1599 [16]) [%]	normalised response (CAL-51 [17]) [%]	normalised response (HCC1937 [18]) [%]	normalised response (MDA-MB-468 [19]) [%]	normalised response (MFM-223 [20]) [%]	normalised response (HDQ-P1 [21]) [%]	normalised response (DU-4475 [22]) [%]	normalised response (MDA-MB-453 [23]) [%]	normalised response (MDA-MB-436 [24]) [%]	normalised response (CAL-85-1 [25]) [%]	normalised response (HCC1143 [26]) [%]	normalised response (BT-474 [27]) [%]	normalised response (MCF-10A [28]) [%]	normalised response (CAL-120 [29]) [%]	normalised response (Hs578T [30]) [%]	normalised response (CAL-148 [31]) [%]	normalised response (SK-BR-3) [%]	normalised response (BT-549 [32]) [%]	normalised response (MDA-MB-231 [33]) [%]	normalised response (HCC1599 [34]) [%]	normalised response (CAL-51 [35]) [%]	normalised response (HCC1937 [36]) [%]
CC[C@H](C)C(=O)O[C@H]1C[C@H](O)C=C2C=C[C@H](C)[C@H](CC[C@@H](O)C[C@@H](O)CC(=O)O)[C@H]21 [Pravastatin] (10000 nM)	21.1	63.1	97.2	93.2	94.4	-63.1	106	101	99.4	26.1	101	115	91.6	90.3	54.3	89.1	16.5	96.1	34.5	49.5	65.7	41.6	55.3	21.6	44.8	42.3	50.8	67.1	58	70.3	39.7	21.6	56.4	61	29.5	36	37
CC1=C(/C=C/C(C)=C/C=C/C(C)=C/C(=O)O)C(C)(C)CCC1 [Tretinoin] (10000 nM)	127	103	80.3	98	94.4	88.9	55.4	84.1	68.7	73.5	101	75.1	102	76.9	36.8	102	98.5	61.1	81	78.9	90	89.9	56.4	79.2	56.5	84.7	62.2	60.7	98.2	72.9	75	21.8	62.2	63.5	61.6	86.2	72.3
CCc1cncnc1N1CCN(Cc2nc3ccc(C(F)(F)F)cc3[nH]2)CC1 (10000 nM)	103	103	63.1	104	99.9	102	67.3	117	93	105	99.6	72.9	103	95.6	118	99.2	94.5	90.2	70	78.3	102	89.9	81.6	95.7	91.8	90	85.8	93.8	89	95.7	95.4	89.5	83.9	95	85.7	49.3	82.1
